From patent US20250236609A1, “VPS34 INHIBITORS AND METHODS OF USE THEREOF” (Deciphera Pharmaceuticals, LLC, priority 2023, published 2025)

What was measured:
[1] = molecular target: VPS34 (Homo sapiens (Human), UniProt Q8NEB9); test: Biochemical Assay for VPS34 (ADP-Glo kinase activity assay); details: 25 nM VPS34, 1 mM ATP, 1-hour incubation at 37° C.; read-out: VPS34 (Inhibition of biochemical activity of VPS34, IC50)
Procedure: Activity of VPS34 kinase was determined using an ADP-Glo kinase activity assay (Promega Corp). Assays were conducted in 384-well plates (5 μL assay volume) using 25 nM VPS34 (ThermoFisher Scientific), […] PI:3PS Lipid Kinase Substrate (Promega Corp.), and 1 mM ATP in kinase buffer. Inhibition of VPS34 was measured by adding serial diluted test compound (final assay concentration of 0.1% DMSO) followed by a 1-hour incubation at 37° C. ADP-Glo reagent was then added ([…]) followed by a 40 min incubation at rt. Kinase detection reagent was then added ([…]) and followed by a 60 min incubation at rt. Luminescence was then detected. The RLU at each compound concentration of was converted to percent inhibition using controls (i.e., reaction with no test compound and reaction with a known inhibitor) and IC50 values were calculated by fitting a four-parameter sigmoidal curve to the data using GeneData Screener software.
VPS34 Protein Sequence (Full Length with GST Tag)

[2] = molecular target: PI3K (p110α (E542K)/p85α) (Homo sapiens (Human), UniProt P42336, E542K); test: Lipid kinase selectivity panel (Reaction Biology); assay type: biochemical; details: 1 μM compound, single dose duplicates, 10 μM ATP; read-out: Percent inhibition relative to DMSO control, PI3K (p110α (E542K)/p85α)
Sequence of PI3K (p110α (E542K)/p85α) (P42336 whole entry E542K): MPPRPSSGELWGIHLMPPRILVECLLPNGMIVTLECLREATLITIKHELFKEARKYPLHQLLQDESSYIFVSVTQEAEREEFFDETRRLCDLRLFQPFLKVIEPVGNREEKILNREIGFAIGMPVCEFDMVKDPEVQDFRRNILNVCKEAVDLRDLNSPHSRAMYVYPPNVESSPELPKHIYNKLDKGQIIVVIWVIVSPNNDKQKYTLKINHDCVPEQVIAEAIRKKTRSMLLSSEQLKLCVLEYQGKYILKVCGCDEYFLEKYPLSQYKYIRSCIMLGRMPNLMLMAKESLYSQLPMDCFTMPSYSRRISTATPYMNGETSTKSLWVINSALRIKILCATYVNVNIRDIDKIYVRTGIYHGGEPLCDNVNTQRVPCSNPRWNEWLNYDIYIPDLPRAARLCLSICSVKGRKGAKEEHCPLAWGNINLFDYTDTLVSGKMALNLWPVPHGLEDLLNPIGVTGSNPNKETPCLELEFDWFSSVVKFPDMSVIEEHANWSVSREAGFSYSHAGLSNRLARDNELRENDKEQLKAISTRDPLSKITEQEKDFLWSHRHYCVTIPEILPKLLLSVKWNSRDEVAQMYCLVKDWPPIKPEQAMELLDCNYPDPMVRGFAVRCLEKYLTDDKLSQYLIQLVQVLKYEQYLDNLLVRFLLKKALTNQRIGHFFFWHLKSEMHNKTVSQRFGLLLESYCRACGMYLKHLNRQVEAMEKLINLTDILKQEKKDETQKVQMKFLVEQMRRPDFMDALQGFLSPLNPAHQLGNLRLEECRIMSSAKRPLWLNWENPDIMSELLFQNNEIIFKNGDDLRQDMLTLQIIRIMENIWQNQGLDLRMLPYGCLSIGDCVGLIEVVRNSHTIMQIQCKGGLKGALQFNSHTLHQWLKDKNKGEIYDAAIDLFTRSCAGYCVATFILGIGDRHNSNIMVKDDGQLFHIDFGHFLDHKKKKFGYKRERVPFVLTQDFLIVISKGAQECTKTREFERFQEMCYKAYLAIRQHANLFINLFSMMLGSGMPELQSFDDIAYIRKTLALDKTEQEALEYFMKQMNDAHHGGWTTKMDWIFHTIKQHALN
Sequence of PI3K (p110α (E542K)/p85α) (P27986 whole entry partner): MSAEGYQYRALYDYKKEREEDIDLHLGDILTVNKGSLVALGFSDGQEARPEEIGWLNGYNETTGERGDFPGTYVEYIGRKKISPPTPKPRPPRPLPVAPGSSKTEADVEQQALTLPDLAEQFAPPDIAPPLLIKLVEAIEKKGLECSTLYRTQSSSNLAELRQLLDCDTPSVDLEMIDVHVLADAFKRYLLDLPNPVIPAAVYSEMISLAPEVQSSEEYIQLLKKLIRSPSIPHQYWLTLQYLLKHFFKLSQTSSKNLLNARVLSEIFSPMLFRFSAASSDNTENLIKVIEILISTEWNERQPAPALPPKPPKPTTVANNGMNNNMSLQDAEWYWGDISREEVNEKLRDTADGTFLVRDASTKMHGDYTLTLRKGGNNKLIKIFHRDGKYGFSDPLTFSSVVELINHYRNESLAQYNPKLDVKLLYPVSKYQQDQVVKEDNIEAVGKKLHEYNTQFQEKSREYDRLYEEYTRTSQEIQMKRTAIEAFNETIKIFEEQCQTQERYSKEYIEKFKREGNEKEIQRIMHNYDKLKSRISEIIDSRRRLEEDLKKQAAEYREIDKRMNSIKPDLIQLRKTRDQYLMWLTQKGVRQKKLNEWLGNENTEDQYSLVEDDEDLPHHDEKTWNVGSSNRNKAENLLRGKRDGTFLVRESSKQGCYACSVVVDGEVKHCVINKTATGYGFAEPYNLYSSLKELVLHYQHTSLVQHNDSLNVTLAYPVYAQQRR
Procedure: (§1) The compounds of the present invention were tested in a standard lipid kinase selectivity panel: 16 other lipid kinases (Reaction Biology, Malvern, PA, USA), under conditions of non-disclosure, non-dissemination, and non-use. In brief, compounds (see Table 2) were tested at in single dose duplicates at 1 μM against lipid kinases, including PI3Kα, PI3Kβ, and PI3Kδ, and reactions were carried out at 10 μM ATP.

[3] = molecular target: PI3K (p110α (E545K)/p85α) (Homo sapiens (Human), UniProt P42336, E545K); test: Lipid kinase selectivity panel (Reaction Biology); assay type: biochemical; details: 1 μM compound, single dose duplicates, 10 μM ATP; read-out: Percent inhibition relative to DMSO control, PI3K (p110α (E545K)/p85α)
Sequence of PI3K (p110α (E545K)/p85α) (P42336 whole entry E545K): as the sequence (P42336 whole entry E542K) above, with K542E, E545K counted along it
Sequence of PI3K (p110α (E545K)/p85α) (P27986 whole entry partner): as the sequence (P27986 whole entry partner) above
Procedure: as §1

[4] = molecular target: PI3K (p110α (H1047R)/p85α) (Homo sapiens (Human), UniProt P42336, H1047R); test: Lipid kinase selectivity panel (Reaction Biology); assay type: biochemical; details: 1 μM compound, single dose duplicates, 10 μM ATP; read-out: Percent inhibition relative to DMSO control, PI3K (p110α (H1047R)/p85α)
Sequence of PI3K (p110α (H1047R)/p85α) (P42336 whole entry H1047R): as the sequence (P42336 whole entry E542K) above, with K542E, H1047R counted along it
Sequence of PI3K (p110α (H1047R)/p85α) (P27986 whole entry partner): as the sequence (P27986 whole entry partner) above
Procedure: as §1

[5] = molecular target: PI3K (p110α/p65α) (Homo sapiens (Human), UniProt P42336); test: Lipid kinase selectivity panel (Reaction Biology); assay type: biochemical; details: 1 μM compound, single dose duplicates, 10 μM ATP; read-out: Percent inhibition relative to DMSO control, PI3K (p110α/p65α)
Sequence of PI3K (p110α/p65α) (P42336 whole entry, species assumed): as the sequence (P42336 whole entry E542K) above, with K542E counted along it
Procedure: as §1

[6] = molecular target: PI3KC2α (Homo sapiens (Human), UniProt O00443); test: Lipid kinase selectivity panel (Reaction Biology); assay type: biochemical; details: 1 μM compound, single dose duplicates, 10 μM ATP; read-out: Percent inhibition relative to DMSO control, PI3KC2α
Sequence of PI3KC2α (O00443 whole entry, species assumed): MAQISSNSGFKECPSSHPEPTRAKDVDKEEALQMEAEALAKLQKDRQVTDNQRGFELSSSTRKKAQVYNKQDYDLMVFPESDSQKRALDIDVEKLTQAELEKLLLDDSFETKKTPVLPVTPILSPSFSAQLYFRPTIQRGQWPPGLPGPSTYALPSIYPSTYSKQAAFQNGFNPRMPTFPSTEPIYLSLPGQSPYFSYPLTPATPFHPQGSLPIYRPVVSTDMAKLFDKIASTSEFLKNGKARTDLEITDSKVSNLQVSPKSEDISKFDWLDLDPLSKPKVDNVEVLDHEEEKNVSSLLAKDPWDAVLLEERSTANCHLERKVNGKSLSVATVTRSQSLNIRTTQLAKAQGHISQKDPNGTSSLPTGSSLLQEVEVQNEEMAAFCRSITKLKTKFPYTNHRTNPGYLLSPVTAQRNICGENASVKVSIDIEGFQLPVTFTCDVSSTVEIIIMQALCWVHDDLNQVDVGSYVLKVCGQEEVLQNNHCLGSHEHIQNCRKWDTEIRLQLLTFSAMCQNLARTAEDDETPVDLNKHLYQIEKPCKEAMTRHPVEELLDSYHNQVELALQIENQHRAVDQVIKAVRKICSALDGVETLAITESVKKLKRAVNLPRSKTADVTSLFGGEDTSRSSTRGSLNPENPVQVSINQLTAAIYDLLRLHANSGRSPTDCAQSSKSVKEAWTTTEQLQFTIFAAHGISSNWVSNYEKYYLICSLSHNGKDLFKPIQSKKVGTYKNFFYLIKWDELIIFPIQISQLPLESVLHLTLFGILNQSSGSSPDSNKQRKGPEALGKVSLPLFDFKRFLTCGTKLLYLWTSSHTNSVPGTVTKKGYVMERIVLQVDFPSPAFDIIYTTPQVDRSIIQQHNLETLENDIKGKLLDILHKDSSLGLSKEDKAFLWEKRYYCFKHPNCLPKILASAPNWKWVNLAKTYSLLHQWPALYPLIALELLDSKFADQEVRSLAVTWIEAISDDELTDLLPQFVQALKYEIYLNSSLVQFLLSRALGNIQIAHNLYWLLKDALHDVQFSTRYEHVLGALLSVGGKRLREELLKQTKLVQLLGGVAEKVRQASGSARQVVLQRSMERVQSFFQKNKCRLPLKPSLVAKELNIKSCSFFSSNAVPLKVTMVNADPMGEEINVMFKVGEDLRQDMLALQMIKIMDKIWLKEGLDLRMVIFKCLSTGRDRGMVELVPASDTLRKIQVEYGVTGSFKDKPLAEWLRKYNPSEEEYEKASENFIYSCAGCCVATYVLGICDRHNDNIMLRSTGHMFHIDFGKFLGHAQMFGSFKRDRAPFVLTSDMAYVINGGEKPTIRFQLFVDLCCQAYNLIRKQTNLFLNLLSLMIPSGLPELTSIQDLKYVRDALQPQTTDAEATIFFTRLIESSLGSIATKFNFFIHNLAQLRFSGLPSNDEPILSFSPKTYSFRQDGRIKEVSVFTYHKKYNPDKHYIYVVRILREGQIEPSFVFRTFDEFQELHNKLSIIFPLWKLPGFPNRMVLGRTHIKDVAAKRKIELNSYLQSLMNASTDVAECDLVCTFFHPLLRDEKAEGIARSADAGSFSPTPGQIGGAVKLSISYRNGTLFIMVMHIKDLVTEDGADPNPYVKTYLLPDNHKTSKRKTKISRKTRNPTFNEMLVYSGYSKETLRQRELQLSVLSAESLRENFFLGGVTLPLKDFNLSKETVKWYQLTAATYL
Procedure: as §1

[7] = molecular target: PI3Kb (p110β/p85α) (Homo sapiens (Human), UniProt P42338); test: Lipid kinase selectivity panel (Reaction Biology); assay type: biochemical; details: 1 μM compound, single dose duplicates, 10 μM ATP; read-out: Percent inhibition relative to DMSO control, PI3Kb (p110β/p85α)
Procedure: as §1

[8] = molecular target: PI3Kd (p110δ/p85α) (Homo sapiens (Human), UniProt O00329); test: Lipid kinase selectivity panel (Reaction Biology); assay type: biochemical; details: 1 μM compound, single dose duplicates, 10 μM ATP; read-out: Percent inhibition relative to DMSO control, PI3Kd (p110δ/p85α)
Procedure: as §1

[9] = molecular target: PI3Kg (p110γ) (Homo sapiens (Human), UniProt P48736); test: Lipid kinase selectivity panel (Reaction Biology); assay type: biochemical; details: 1 μM compound, single dose duplicates, 10 μM ATP; read-out: Percent inhibition relative to DMSO control, PI3Kg (p110γ)
Sequence of PI3Kg (p110γ) (P48736 whole entry, species assumed): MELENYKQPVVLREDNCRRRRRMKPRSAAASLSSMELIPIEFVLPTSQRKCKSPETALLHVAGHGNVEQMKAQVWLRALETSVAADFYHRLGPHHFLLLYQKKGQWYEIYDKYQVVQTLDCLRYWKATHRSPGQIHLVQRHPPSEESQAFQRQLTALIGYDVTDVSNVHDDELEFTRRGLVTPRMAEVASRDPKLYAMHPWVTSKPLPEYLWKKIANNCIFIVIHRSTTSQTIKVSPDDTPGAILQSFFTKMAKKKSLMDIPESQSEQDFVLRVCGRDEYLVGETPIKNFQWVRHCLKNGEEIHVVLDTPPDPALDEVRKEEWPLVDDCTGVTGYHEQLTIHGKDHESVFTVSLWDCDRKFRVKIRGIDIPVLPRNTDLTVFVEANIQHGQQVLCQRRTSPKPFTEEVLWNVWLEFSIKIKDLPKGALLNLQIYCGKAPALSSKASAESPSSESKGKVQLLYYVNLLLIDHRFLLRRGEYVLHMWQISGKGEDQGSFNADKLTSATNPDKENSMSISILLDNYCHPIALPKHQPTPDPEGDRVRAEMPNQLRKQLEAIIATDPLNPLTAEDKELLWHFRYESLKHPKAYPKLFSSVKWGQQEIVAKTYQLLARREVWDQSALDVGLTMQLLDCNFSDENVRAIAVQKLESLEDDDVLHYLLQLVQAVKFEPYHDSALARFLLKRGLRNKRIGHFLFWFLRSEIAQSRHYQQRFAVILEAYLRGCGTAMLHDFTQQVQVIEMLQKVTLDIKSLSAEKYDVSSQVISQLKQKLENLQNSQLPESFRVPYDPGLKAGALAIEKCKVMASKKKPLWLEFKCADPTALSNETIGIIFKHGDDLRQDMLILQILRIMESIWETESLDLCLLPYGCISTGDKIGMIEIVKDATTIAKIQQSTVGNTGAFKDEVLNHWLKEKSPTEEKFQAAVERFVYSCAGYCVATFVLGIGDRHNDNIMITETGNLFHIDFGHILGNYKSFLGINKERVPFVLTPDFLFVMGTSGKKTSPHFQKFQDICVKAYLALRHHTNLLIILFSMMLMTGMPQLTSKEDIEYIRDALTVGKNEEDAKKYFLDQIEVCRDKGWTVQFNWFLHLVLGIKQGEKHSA
Procedure: as §1

[10] = molecular target: PI3Kα (p110α/p85α) (Homo sapiens (Human), UniProt P42336); test: Lipid kinase selectivity panel (Reaction Biology); assay type: biochemical; details: 1 μM compound, single dose duplicates, 10 μM ATP; read-out: Percent inhibition relative to DMSO control, PI3Kα (p110α/p85α)
Sequence of PI3Kα (p110α/p85α) (P42336 whole entry, species assumed): as the sequence (P42336 whole entry E542K) above, with K542E counted along it
Sequence of PI3Kα (p110α/p85α) (P27986 whole entry partner, species assumed): as the sequence (P27986 whole entry partner) above
Procedure: as §1

COC(=O)Nc1cc(-c2cc(N3CCCC[C@@H]3C(F)(F)F)[nH]c(=O)c2)c(C)cn1 [Example 1, methyl (R)-(5-methyl-2′-oxo-6′-(2-(trifluoromethyl)piperidin-1-yl)-1′,2′-dihydro-[4,4′-bipyridin]-2-yl)carbamate]
IC50 [1]: ≤ 0.1 µM | inhibition at 1 µM [2]: 4% | inhibition at 1 µM [3]: 15% | inhibition at 1 µM [4]: 10% | inhibition at 1 µM [5]: 5% | inhibition at 1 µM [6]: -1% | inhibition at 1 µM [7]: 13% | inhibition at 1 µM [8]: 9% | inhibition at 1 µM [9]: 12% | inhibition at 1 µM [10]: 22%

COC(=O)Nc1cc(-c2cc(-c3cccnc3C(F)(F)F)[nH]c(=O)c2)c(F)cn1 [Example 5]
IC50 [1]: 0.1 to 0.5 µM | inhibition at 1 µM [2]: 32% | inhibition at 1 µM [3]: 32% | inhibition at 1 µM [4]: 35% | inhibition at 1 µM [5]: 15% | inhibition at 1 µM [6]: 3% | inhibition at 1 µM [7]: -6% | inhibition at 1 µM [8]: 58% | inhibition at 1 µM [9]: 23% | inhibition at 1 µM [10]: 17%

COC(=O)Nc1ncc(C)c(-c2cc(-c3cccnc3C(F)(F)F)[nH]c(=O)c2)n1 [Example 6]
IC50 [1]: 0.5 to 1 µM | inhibition at 1 µM [2]: 4% | inhibition at 1 µM [3]: 3% | inhibition at 1 µM [4]: 19% | inhibition at 1 µM [5]: -26% | inhibition at 1 µM [6]: -3% | inhibition at 1 µM [7]: -14% | inhibition at 1 µM [8]: -2% | inhibition at 1 µM [9]: 5% | inhibition at 1 µM [10]: -2%

CNC(=O)Nc1cc(-c2cc(N3CCCC[C@@H]3C(F)(F)F)[nH]c(=O)c2)c(C)cn1 [Example 10]
IC50 [1]: 0.1 to 0.5 µM | inhibition at 1 µM [2]: 0% | inhibition at 1 µM [3]: 3% | inhibition at 1 µM [4]: -3% | inhibition at 1 µM [5]: -23% | inhibition at 1 µM [6]: 0% | inhibition at 1 µM [7]: -12% | inhibition at 1 µM [8]: 1% | inhibition at 1 µM [9]: -16% | inhibition at 1 µM [10]: -3%

COC(=O)Nc1cc(-c2cc(N3CCCC[C@@H]3C(F)(F)F)[nH]c(=O)c2)c(N)cn1 [Example 14]
IC50 [1]: ≤ 0.1 µM | inhibition at 1 µM [2]: -5% | inhibition at 1 µM [3]: 3% | inhibition at 1 µM [4]: 0% | inhibition at 1 µM [5]: -7% | inhibition at 1 µM [6]: -1% | inhibition at 1 µM [7]: -9% | inhibition at 1 µM [8]: -2% | inhibition at 1 µM [9]: 11% | inhibition at 1 µM [10]: -3%

COC(=O)Nc1cc(-c2cc(-c3cccnc3C(F)(F)F)[nH]c(=O)c2)c(N)cn1 [Example 15]
IC50 [1]: 0.1 to 0.5 µM | inhibition at 1 µM [2]: -11% | inhibition at 1 µM [3]: -2% | inhibition at 1 µM [4]: 10% | inhibition at 1 µM [5]: -12% | inhibition at 1 µM [6]: -26% | inhibition at 1 µM [7]: -4% | inhibition at 1 µM [8]: -5% | inhibition at 1 µM [9]: 16% | inhibition at 1 µM [10]: -19%

O=C(Nc1cc(-c2cc(N3CCCC[C@@H]3C(F)(F)F)[nH]c(=O)c2)c(Cl)cn1)C1CC1 [Example 16]
IC50 [1]: 0.1 to 0.5 µM | inhibition at 1 µM [2]: -2% | inhibition at 1 µM [3]: -8% | inhibition at 1 µM [4]: 14% | inhibition at 1 µM [5]: -24% | inhibition at 1 µM [6]: -11% | inhibition at 1 µM [7]: -5% | inhibition at 1 µM [8]: -2% | inhibition at 1 µM [9]: 29% | inhibition at 1 µM [10]: -24%

Cc1cnc(NC(=O)C2CC2)cc1-c1cc(N2CCCC[C@@H]2C(F)(F)F)[nH]c(=O)c1 [Example 17]
IC50 [1]: ≤ 0.1 µM | inhibition at 1 µM [2]: -3% | inhibition at 1 µM [3]: -5% | inhibition at 1 µM [4]: 6% | inhibition at 1 µM [5]: -17% | inhibition at 1 µM [6]: -21% | inhibition at 1 µM [7]: -10% | inhibition at 1 µM [8]: 14% | inhibition at 1 µM [9]: 7% | inhibition at 1 µM [10]: -15%

COC(=O)Nc1cc(-c2cc(N3CCCC[C@@H]3C(F)(F)F)[nH]c(=O)c2)c(CF)cn1 [Example 18]
IC50 [1]: 0.1 to 0.5 µM | inhibition at 1 µM [2]: -1% | inhibition at 1 µM [3]: 2% | inhibition at 1 µM [4]: 16% | inhibition at 1 µM [5]: -2% | inhibition at 1 µM [6]: -18% | inhibition at 1 µM [7]: -3% | inhibition at 1 µM [8]: 13% | inhibition at 1 µM [9]: -13% | inhibition at 1 µM [10]: -5%

COC(=O)Nc1cc(-c2cc(N3CCCC[C@@H]3C)[nH]c(=O)c2)c(C)cn1 [Example 20]
IC50 [1]: 0.1 to 0.5 µM | inhibition at 1 µM [2]: -5% | inhibition at 1 µM [3]: -3% | inhibition at 1 µM [4]: -11% | inhibition at 1 µM [5]: -11% | inhibition at 1 µM [6]: 5% | inhibition at 1 µM [7]: -9% | inhibition at 1 µM [8]: -4% | inhibition at 1 µM [9]: -10% | inhibition at 1 µM [10]: -2%

Cc1cnc(NC(=O)CC2CNCC2(F)F)cc1-c1cc(N2CCCC[C@@H]2C(F)(F)F)[nH]c(=O)c1 (stereo partly drawn) [Example 22]
IC50 [1]: 0.1 to 0.5 µM | inhibition at 1 µM [2]: -4% | inhibition at 1 µM [3]: -1% | inhibition at 1 µM [4]: -4% | inhibition at 1 µM [5]: -4% | inhibition at 1 µM [6]: 2% | inhibition at 1 µM [7]: -3% | inhibition at 1 µM [8]: 4% | inhibition at 1 µM [9]: -8% | inhibition at 1 µM [10]: 3%

CNCC(=O)Nc1cc(-c2cc(N3CCCC[C@@H]3C(F)(F)F)[nH]c(=O)c2)c(C)cn1 [Example 24]
IC50 [1]: 0.1 to 0.5 µM | inhibition at 1 µM [2]: -4% | inhibition at 1 µM [3]: -2% | inhibition at 1 µM [4]: -17% | inhibition at 1 µM [5]: -6% | inhibition at 1 µM [6]: 2% | inhibition at 1 µM [7]: -9% | inhibition at 1 µM [8]: -9% | inhibition at 1 µM [9]: -7% | inhibition at 1 µM [10]: -1%

Cc1cnc(NC(=O)CCN(C)C)cc1-c1cc(N2CCCC[C@@H]2C(F)(F)F)[nH]c(=O)c1 [Example 25]
IC50 [1]: 0.1 to 0.5 µM | inhibition at 1 µM [2]: 1% | inhibition at 1 µM [3]: -1% | inhibition at 1 µM [4]: -7% | inhibition at 1 µM [5]: 0% | inhibition at 1 µM [6]: -5% | inhibition at 1 µM [7]: -7% | inhibition at 1 µM [8]: -7% | inhibition at 1 µM [9]: -4% | inhibition at 1 µM [10]: 4%

Cc1cnc(NC(=O)CCN2CCCC2)cc1-c1cc(N2CCCC[C@@H]2C(F)(F)F)[nH]c(=O)c1 [Example 26]
IC50 [1]: 0.1 to 0.5 µM | inhibition at 1 µM [2]: -2% | inhibition at 1 µM [3]: -1% | inhibition at 1 µM [4]: -8% | inhibition at 1 µM [5]: -4% | inhibition at 1 µM [6]: 4% | inhibition at 1 µM [7]: -10% | inhibition at 1 µM [8]: -5% | inhibition at 1 µM [9]: -5% | inhibition at 1 µM [10]: -2%

Cc1cnc(NC(=O)CC2CNC2)cc1-c1cc(N2CCCC[C@@H]2C(F)(F)F)[nH]c(=O)c1 [Example 27]
IC50 [1]: 0.1 to 0.5 µM | inhibition at 1 µM [2]: 1% | inhibition at 1 µM [3]: 1% | inhibition at 1 µM [4]: -11% | inhibition at 1 µM [5]: 7% | inhibition at 1 µM [6]: 0% | inhibition at 1 µM [7]: -1% | inhibition at 1 µM [8]: 2% | inhibition at 1 µM [9]: -8% | inhibition at 1 µM [10]: 4%

COCCC(=O)N1CCN(c2cc(-c3cc(NC(=O)C4CC4)ncc3C)cc(=O)[nH]2)[C@@H](C)C1 [Example 95]
IC50 [1]: 1 to 10 µM

Cc1nccc(Nc2cc(-c3cc(NS(=O)(=O)c4ccc(F)cc4F)[nH]c(=O)c3)c(C)cn2)n1 [Example 96, 2,4-difluoro-N-(5′-methyl-2′-((2-methylpyrimidin-4-yl)amino)-6-oxo-1,6-dihydro-[4,4′-bipyridin]-2-yl)benzenesulfonamide]
IC50 [1]: 0.1 to 0.5 µM

Cc1cnc(NC(=O)C2CC2)cc1-c1cc(NS(=O)(=O)c2ccc(F)cc2F)[nH]c(=O)c1 [compound 97]
IC50 [1]: 0.1 to 0.5 µM
